Data as given in patent US20230278953A1, “WATER SOLUBLE PRODRUGS OF PTBA FOR USE IN HDAC INHIBITION AND ENHANCING RENAL RECOVERY FOLLOWING ACUTE KIDNEY INJURY” (KLOTHO THERAPEUTICS, INC., priority 2020, published 2023).
Values after ≈ are worked out from the molar mass of the structure shown.

Key:
[1] = Determination of Kinetic Solubility; type: physicochemical; conditions: phosphate-buffered saline, aqueous buffer, kinetic from dmso stock; PBS pH 7.4, 2% final DMSO, 25° C., two hours; effective range approximately 2-400 μM
Experimental: A 20 mM stock solution of the test compound in 100% DMSO dilutions were prepared to a theoretical concentration of 400 μM in duplicates in phosphate-buffered saline pH 7.4 (138 mM NaCl, 2.7 mM KCl, 10 mM K-phosphate) with 2% final DMSO. The experimental compound dilutions in PBS were further allowed to equilibrate at 25° C. on a thermostatic shaker for two hours and then filtered through HTS filter plates using a vacuum manifold. The filtrates of test compounds were diluted 2-fold with acetonitrile with 2% DMSO before measuring.
In parallel, compound dilutions in 50% acetonitrile/PBS were prepared to theoretical concentrations of 0 μM (blank), 10 μM, 25 μM, 50 μM, 100 μM, and 200 μM with 2% final DMSO to generate calibration curves. Ondansetron was used as reference compound to control proper assay performance 200 μl of each sample was transferred to 96-well plate and measured in 200-550 nm range with 5 nm step.
The concentrations of compounds in PBS filtrate were calculated using a dedicated Microsoft Excel calculation script. Proper absorbance wavelengths for calculations were selected for each compound manually based on absorbance maximums (absolute absorbance unit values for the minimum and maximum concentration points within 0-3 OD range). Each of the final datasets was additionally visually evaluated by the operator and goodness of fit (R2) was calculated for each calibration curve.

[2] = system: cisplatin induced acute kidney injury (CI-AKI); assay: cisplatin induced acute kidney injury (CI-AKI) in mice, Compound 3; type: in vivo, C57BL/6J mice
Experimental: The aim of the study was to investigate the efficacy of test compounds in the model of cisplatin induced acute kidney injury (CI-AKI) in mice.
Serum analysis for urea (BUN) was performed on the 5th day and 9th days after cisplatin administration. The mean body weight loss per group was calculated every day of the study as percentage loss of initial (day 0) weight for each individual animal.
Study design, animal selection, handling and treatment were all in accordance with the CRO's study protocols and Institutional Animal Care and Use Guidelines Animal treatment and serum samples preparation were conducted by the Animal Laboratory personnel at the CRO. 60 female C57BL/6J mice 9-12 weeks old were randomized by body weight and divided into 2 groups, 30 animals each. Body weights ranged from 13.9 to 22.0 g with an average body weight across all groups 17.75 g (SD=1.30; CV=7.3%). Each mouse was treated with a single dose via IP route of administration with cisplatin at the dose of 11 mg/kg on the day 0 of the study. […] The mice in Group 1 remained untreated after the cisplatin injection until the terminal sacrifice.
Cisplatin was administered without dilution as a factory-made 1 mg/ml solution for infusion at the injection volume of 11 ml/kg for the dose of 11 mg/kg. […] Only freshly prepared formulation was used for each dosing; each working formulation batch was prepared immediately prior to the administration. The working formulations were sterile filtered using 0.2 μm cellulose acetate syringe filters before injections. The dosing volume for the test compound was 5 ml/kg of body weight. The working formulations were administered as transparent clear solutions. Intraperitoneal (IP) route of administration was used in the study. Urea (BUN) was determined in the serum using a commercial kit according to the manufacturer's instructions. […] The rate of absorbance change at λ=340 nm is proportional to the urea concentration. […] Creatinine was measured using mModified Jaffe's method, without deproteinization. […]

renal progenitor cells = conditions: zebrafish embryos; proliferation-dependent manner; cited from earlier work
[3] = system: Ischemia-Reperfusion Induced Acute Kidney Injury (IRI-AKI); assay: Ischemia-Reperfusion Induced Acute Kidney Injury (IRI-AKI) in rats; type: in vivo, Sprague Dawley male rats; conditions: 10 mg/kg IV, seven days repeated; 60 minutes bilateral renal occlusion; 3 days after IRI; vs Vehicle treated group
Experimental: The aim of the study was to investigate the efficacy of test compounds in the model of Ischemia-Reperfusion Induced Acute Kidney Injury (IRI-AKI) in Sprague Dawley male rats. IRI-AKI model was developed in experimental animals by applying bilateral renal occlusion. The duration of the occlusion was equal 60 minutes. For instance, rhe effects of seven days repeated intravenous (IV) administration of compound 22 of 10 mg/kg on pathology dynamics in rats exposed to IRI-AKI was assessed. […] Serum analysis for creatinine was performed one day prior to ischemia-reperfusion surgery, 24 hours after, and on the 3rd, 5th, and 7th day after IRI-AKI intervention. Study design, animal selection, handling and treatment were all in accordance with the CRO's study protocols and Institutional Animal Care and Use Guidelines Animal treatment and serum samples preparation were conducted by the Animal Laboratory personnel at the CRO. 28 male Sprague Dawley rats 11-14 weeks old were randomized by body weight All experimental animal were anesthetized prior to surgical intervention by Telazol at the dose of 40 mg/kg body weight and Xylazine at the dose of 7 mg/kg body weight. Acute renal injury model was achieved by performing bilateral renal occlusion. […] Creatinine was measured using mModified Jaffe's method, without deproteinization. […]

[4] = system: cisplatin-induced acute kidney injury (CI-AKI); assay: cisplatin-induced acute kidney injury (CI-AKI) mouse model, Compound 22; type: in vivo, C57BL/6J mice; conditions: for gradual recovery of mean body weight: cisplatin 11 mg/kg IP Day 0
Experimental: The aim of the study was to investigate the efficacy of test compound(s) in a (mouse) model for acute kidney injury. Specifically, the study investigated the efficacy of test compound(s) in cisplatin-induced acute kidney injury (CI-AKI) mouse model. For example, the effect of daily repeated intraperitoneal (IP) administration of Compound 22 at doses of 50 mg/kg for 7 consecutive days in four different treatment regimens on development of pathology in mice in CI-AKI model was evaluated. Serum analysis for urea (BUN) was performed on the 5th day and 12th days after cisplatin administration. The mean body weight loss per group was calculated every day of the study as percentage loss of initial (day 0) weight for each individual animal.
Study design, animal selection, handling and treatment were all in accordance with the CRO's study protocols and Institutional Animal Care and Use Guidelines Animal treatment and serum samples preparation were conducted by the Animal Laboratory personnel at the CRO. 100 female C57BL/6J mice 11-14 weeks old were randomized by body weight and divided into five groups, 20 animals each. Body weights ranged from 16.9 to 22.5 g with an average body weight across all groups 19.54 g (SD=1.04; CV=5.3%). Each mouse was treated with a single dose via IP route of administration with cisplatin at the dose of 11 mg/kg on the day 0 of the study. The mice in Group 2 and 4 were repeatedly treated with Compound 22 at the dose of 50 mg/kg with an interval of 24 h for seven consecutive days starting from Day 2 or Day 0 of the study, respectively. […]
To induce acute kidney injury, Cisplatin was administered without dilution as a factory-made 1 mg/ml solution for infusion at the injection volume of 11 ml/kg for the dose of 11 mg/kg. […] Urea (BUN) was determined in the serum using a commercial kit according to the manufacturer's instructions. […] The rate of absorbance change at λ=340 nm is proportional to the urea concentration. […]

[5] = 50 mg/kg IP, 5th day after the cisplatin injection

Compound `Cl.NCCC[C@@H](NC(=O)CCCSc1ccccc1)C(=O)O` [Compound 8] has a solubility kinetic at 2 h [1] of 383 µM.

`CCN1CCC(OC(=O)CCCSc2ccccc2)CC1.O=C(O)C(F)(F)F` [Compound 1, 1-ethylpiperidin-4-yl 4-(phenylsulfanyl)butanoate] showed a solubility kinetic at 2 h [1] greater than 400 µM.

With `O=C(CCCSc1ccccc1)OCC(O)CO` (centres unmarked) [Compound 6] the solubility kinetic at 2 h [1] was greater than 400 µM.

For `CN1CC2(CC(OC(=O)CCCSc3ccccc3)C2)C1` [Compound 15], the solubility kinetic at 2 h [1] was no less than 400 µM.

In the case of `CN(C)CCOC(=O)CCCSc1ccccc1` [Compound 3, 2-(dimethylamino)ethyl 4-(phenylsulfanyl)butanoate], the “mean level of creatinine in serum compared to G1” value [2, 5] is reported as “significantly less”, the “mean level of urea in serum compared to G1” value [2, 5] is reported as “significantly less” and the “gradual recovery of mean body weight” value ([2]; G2: 50 mg/kg IP every 24 h for seven days starting Day 2, cisplatin 11 mg/kg IP Day 0) is reported as “beginning from the sixth day of the study”.

In the case of `O=C(O)CCCSc1ccccc1` [PTBA, 4-(phenylthio)butanoic acid], the “effect on pool of renal progenitor cells” value (renal progenitor cells) is given as “seemed to expand the pool of renal progenitor cells”.

Compound `CN1CCC(C)(OC(=O)CCCSc2ccccc2)CC1.O=C(O)C(F)(F)F` [Compound 2, 1,4-dimethylpiperidin-4-yl 4-(phenylsulfanyl)butanoate] has a solubility kinetic at 2 h [1] greater than 400 µM.

With `NCCC[C@@H](NC(=O)CCCSc1ccccc1)C(=O)N[C@H](CCC(=O)O)C(=O)O.O=C(O)C(F)(F)F` [Compound 11] the solubility kinetic at 2 h [1] was 391 µM.

`O=C(O)C[C@@H](OC(=O)CCCSc1ccccc1)C(=O)O` [Compound 19] showed a solubility kinetic at 2 h [1] greater than 400 µM.

With `O=C(O)CC[C@@H](NC(=O)CCCSc1ccccc1)C(=O)O` [Compound 5] the solubility kinetic at 2 h [1] was 396 µM (≈ 129 µg/mL).

`CC(C)[C@@H](N)C(=O)NCCCOC(=O)CCCSc1ccccc1` [Compound 24] gave a solubility kinetic at 2 h [1] of 390 µM (≈ 137 µg/mL).

Compound `O=C(CCCSc1ccccc1)O[C@@H]1CCNC1.O=C(O)C(F)(F)F` [Compound 17] has a solubility kinetic at 2 h [1] greater than 400 µM.

In the case of `NCCC[C@H](NC(=O)CCCSc1ccccc1)C(=O)N[C@@H](CC(=O)O)C(=O)O.O=C(O)C(F)(F)F` [Compound 9], the solubility kinetic at 2 h [1] is reported as 383 µM.

`O=C(O)C[C@@H](NC(=O)CCCSc1ccccc1)C(=O)O` [Compound 14] showed a solubility kinetic at 2 h [1] of 387 µM (≈ 120 µg/mL).

`NCCC[C@@H](NC(=O)[C@@H](CCC(=O)O)NC(=O)CCCSc1ccccc1)C(=O)O.O=C(O)C(F)(F)F` [Compound 12] gave a solubility kinetic at 2 h [1] greater than 400 µM.

Work on `NCCCC[C@@H](N)C(=O)NCCOC(=O)CCCSc1ccccc1.O=C(O)C(F)(F)F.O=C(O)C(F)(F)F` [Compound 23] yielded a solubility kinetic at 2 h [1] of 399 µM.

For `O=C(CCCSc1ccccc1)OCCOCCO` [Compound 7], the solubility kinetic at 2 h [1] was 385 µM (≈ 109 µg/mL).

In the case of `N[C@@H](COC(=O)CCCSc1ccccc1)C(=O)N[C@H](CCC(=O)O)C(=O)O.O=C(O)C(F)(F)F` [Compound 21], the solubility kinetic at 2 h [1] is reported as greater than 400 µM.

For `CN1CCN(CCOC(=O)CCCSc2ccccc2)CC1.O=C(O)C(F)(F)F` [Compound 13], the solubility kinetic at 2 h [1] was greater than 400 µM.

In the case of `C[N+](C)(C)CCOC(=O)CCCSc1ccccc1.[Cl-]` [Compound 22, N,N,N-trimethyl-2-{[4-(phenylsulfanyl)butanoyl]oxy}ethan-1-aminium chloride], the “Creatinine level in serum” value [3] is reported as “significantly decreased”, the solubility kinetic at 2 h [1] is reported as 398 µM and the “gradual recovery of mean body weight” value ([4]; G2-G3: 50 mg/kg IP once or twice a day for seven days starting Day 2) is reported as “beginning from the fifth day of the study”. The “mean level of urea in serum compared to G1” value ([4]; G2-G5, 50 mg/kg IP, 5th day after the cisplatin injection, vs untreated G1) was “significantly less” and the “gradual recovery of mean body weight” value ([4]; G4-G5: 50 mg/kg IP once or twice a day for seven days starting Day 0) was “beginning from the seventh day of the study”.

Work on `O=C(CCCSc1ccccc1)OCCNCCO` [Compound 16] yielded a solubility kinetic at 2 h [1] greater than 400 µM.

In the case of `O=C(O)CC[C@H](NC(=O)[C@H](CO)NC(=O)CCCSc1ccccc1)C(=O)O` [Compound 20], the solubility kinetic at 2 h [1] is reported as greater than 400 µM.

For `C[C@H](CN(C)C)OC(=O)CCCSc1ccccc1.O=C(O)C(F)(F)F` [Compound 18], the solubility kinetic at 2 h [1] was 362 µM.
